Measurements from ChEMBL document CHEMBL4393667, “Discovery of [1,2,4]Triazolo[4,3- a]pyridines as Potent Inhibitors Targeting the Programmed Cell Death-1/Programmed Cell Death-Ligand 1 Interaction” (J Med Chem, 2019).

Columns and labels:
[1] = target: T1, Programmed cell death protein 1/Programmed cell death 1 ligand 1 (Homo sapiens, UniProt Q15116+Q9NZQ7); test: Inhibition of human PD1/PDL1 protein-protein interaction after 15 mins by HTRF assay; format: protein-complex assay
[2] = target: T1, Programmed cell death protein 1/Programmed cell death 1 ligand 1; test: Inhibition of human PD1/PDL1 protein-protein interaction in human PBMC-derived CD3-positive T cells co-cultured with human Hep3B cells expressing PDL1/OS-8 assessed as increase in IFNgamma secretion measured after 3 days

T1 sequence (Q15116 whole entry): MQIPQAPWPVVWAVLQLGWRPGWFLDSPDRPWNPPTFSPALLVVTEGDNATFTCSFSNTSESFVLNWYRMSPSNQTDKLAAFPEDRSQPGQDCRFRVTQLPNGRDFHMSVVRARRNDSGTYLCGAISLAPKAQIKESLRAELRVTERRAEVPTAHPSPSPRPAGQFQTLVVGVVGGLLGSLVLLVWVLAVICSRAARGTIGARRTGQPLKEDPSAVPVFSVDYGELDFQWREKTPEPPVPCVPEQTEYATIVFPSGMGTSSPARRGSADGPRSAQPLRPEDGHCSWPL
T1 sequence (Q9NZQ7 whole entry): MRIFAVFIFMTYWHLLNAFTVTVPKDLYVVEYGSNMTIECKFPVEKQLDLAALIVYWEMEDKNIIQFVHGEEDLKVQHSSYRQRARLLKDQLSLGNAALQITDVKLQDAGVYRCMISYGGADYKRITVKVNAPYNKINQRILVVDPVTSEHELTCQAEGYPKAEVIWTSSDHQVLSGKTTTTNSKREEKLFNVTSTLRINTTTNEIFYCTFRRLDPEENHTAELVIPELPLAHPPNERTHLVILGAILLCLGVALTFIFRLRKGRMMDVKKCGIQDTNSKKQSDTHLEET

Compound | IC50 [1] | inhibition [2]
Cc1c(NC(=O)c2ccc(CNCCO)n3cnnc23)cccc1-c1ccccc1 | > 10000 nM | 
COC(=O)[C@@H]1CCCCN1Cc1cc(C(=O)Nc2cccc(-c3ccccc3)c2C)c2nncn2c1 | > 10000 nM | 
Cc1c(NC(=O)c2cc(CN3CCCC[C@H]3C(=O)O)cn3cnnc23)cccc1-c1ccccc1 | 5130 nM | 
Cc1c(NC(=O)c2cc(CN3CCN(C)CC3)cn3c(C)nnc23)cccc1-c1ccccc1 | > 10000 nM | 
CN(Cc1cc(C(=O)Nc2cccc(-c3ccc4c(c3)OCCO4)c2C#N)c2nncn2c1)CC(O)CO (stereo unspecified) | 486 nM | 
CC(=O)NCCNCc1cc(C(=O)Nc2cccc(-c3ccccc3)c2C)c2nccn2c1 | > 10000 nM | 
CC(=O)NCCNCc1cc(C(=O)Nc2cccc(-c3ccccc3)c2C)c2nncn2c1 | 1490 nM | 
Cc1c(NC(=O)c2cc(CNCCO)cn3c(C)nnc23)cccc1-c1ccccc1 | > 10000 nM | 
Cc1c(NC(=O)c2cc(CN3CCN(C)CC3)cn3cnnc23)cccc1-c1ccccc1 | 1350 nM | 
Cc1c(NC(=O)c2cc(CN(C)CCO)cn3ccnc23)cccc1-c1ccccc1 | > 10000 nM | 
CC(=O)NCCNCc1cc(C(=O)Nc2cccc(-c3ccc4c(c3)OCCO4)c2C#N)c2nncn2c1 | 367 nM | 
Cc1c(NC(=O)c2cc(CNCCNS(C)(=O)=O)cn3cnnc23)cccc1-c1ccc2c(c1)OCCO2 | 988 nM | 
Cc1c(NC(=O)c2cc(CN(C)CC(O)CO)cn3cnnc23)cccc1-c1ccccc1 (stereo unspecified) | 375 nM | 
Cc1c(NC(=O)c2cc(CNCCO)cn3cnnc23)cccc1-c1ccc2c(c1)OCCO2 |  | Dose-dependent effect
COC(=O)[C@@H](CO)NCc1cc(C(=O)Nc2cccc(-c3ccccc3)c2C)c2nncn2c1 | > 10000 nM | 
CC(=O)NCCNCc1cc(C(=O)Nc2cccc(-c3ccc4c(c3)OCCO4)c2C)c2nncn2c1 | 566 nM | 

Compound | IC50 [1] | inhibition [2]
Cc1c(NC(=O)c2cc(CNCCS(N)(=O)=O)cn3cnnc23)cccc1-c1ccc2c(c1)OCCO2 | 3690 nM | 
Cc1c(NC(=O)c2cc(CN(C)CCO)cn3cnnc23)cccc1-c1ccccc1 | 755 nM | 
Cc1c(NC(=O)c2cc(CNCC(N)=O)cn3cnnc23)cccc1-c1ccccc1 | 2940 nM | 
Cc1c(NC(=O)c2cc(CN(C)CC(O)CO)cn3cnnc23)cccc1-c1ccc2c(c1)OCCO2 (stereo unspecified) | 474 nM | 
Cc1c(NC(=O)c2cc(CN[C@H]3CC[C@H](O)CC3)cn3cnnc23)cccc1-c1ccccc1 | 968 nM | 
CS(=O)(=O)NCCNCc1cc(C(=O)Nc2cccc(-c3ccc4c(c3)OCCO4)c2C#N)c2nncn2c1 | 983 nM | 
Cc1c(NC(=O)c2cc(CN(C)CCO)cn3cnnc23)cccc1-c1ccc2c(c1)OCCO2 | 238 nM | 
Cc1c(NC(=O)c2cc(CN[C@H](CO)C(=O)O)cn3cnnc23)cccc1-c1ccccc1 | 5570 nM | 
Cc1c(NC(=O)c2cc(CNCCS(N)(=O)=O)cn3cnnc23)cccc1-c1ccccc1 | 834 nM | 
Cc1c(NC(=O)c2ccc(CN(C)CCO)n3cnnc23)cccc1-c1ccccc1 | > 10000 nM | 
N#Cc1c(NC(=O)c2cc(CNCCO)cn3cnnc23)cccc1-c1ccc2c(c1)OCCO2 | 275 nM | 
Cc1c(NC(=O)c2cc(CNCCO)cn3cnnc23)cccc1-c1ccccc1 | 733 nM | 
Cc1c(NC(=O)c2cc(CNCCO)cn3ccnc23)cccc1-c1ccccc1 | > 10000 nM | 
CC(=O)NCCNCc1ccc(C(=O)Nc2cccc(-c3ccccc3)c2C)c2nncn12 | > 10000 nM | 
COC(=O)CNCc1cc(C(=O)Nc2cccc(-c3ccccc3)c2C)c2nncn2c1 | > 10000 nM | 
